Experimental data: patent US9365566B2 (Takeda Pharmaceutical Company Limited, priority 2012, dated 2016)
pIC50: −log10 of the molar value.

Biological target: T1, human BTK (Homo sapiens, UniProt Q06187)
T1 construct: GST (Glutathione-S-Transferase) (cleaved yes); made in house; host or cells: Spodoptera frugiperda Sf9 cells (baculovirus, Bac-to-Bac)
Test: BTK inhibition assay: BTK-mediated phosphorylation of FAM-labeled substrate 5-FAM-EEPLYWSFPAKKK-NH2 (Caliper LC-3000)
Format: biochemical
Details: pIC50 = -log(IC50), IC50 molar; residues 382 to 659 of human BTK; incubated at room temperature for 60 minutes; larger values represent higher potency
Description: The activity of compounds as BTK inhibitors may be determined by a variety of methods, including in vitro and in vivo methods.
This construct engineers an in-frame translational fusion with the Glutathione-S-Transferase (GST) protein for use in affinity purification. The fusion protein derived from this construct contains a protease recognition sequence to liberate the BTK from the GST affinity tag. High-titer baculoviral stocks, generated using the Bac-to-Bac® system (Invitrogen), are used to express the recombinant protein in Spodoptera frugiperda Sf9 cells in 10 L Wave bags. Recombinant proteins are isolated from cellular extracts by passage over Glutathione Sepharose 4B (GE Healthcare) and the BTK moiety is released from the GST affinity tag by treatment with PreScission protease. The BTK recombinant protein is further purified by size exclusion chromatography (HiLoad 16/60 Superdex 200, GE Healthcare) in a buffer containing 20 mM Hepes (pH 7.4), 50 mM NaCl, 10 mM MgCl2, 0.25 mM TCEP and 0.1 mM EDTA. The purity of the fractions is assessed by SDS PAGE and the peak protein fractions are pooled and concentrated using Amicon Ultra-15 Centrifugal Filter Devices (Millipore).
The inhibitory properties of compounds relative to BTK is determined using a black 384-well-plate format in a buffer which contains 50 mM Hepes, 10 mM NaCl, 10 mM MgCl2, 0.2 mM EDTA, 0.01% Brij35®, 1 mM DTT, and 0.1 mg/mL BSA at pH 7.3. The test compound is prepared in DMSO using 2-fold serial dilutions for 11 data points, which are added to the buffer so that each dilution contains 3% DMSO. […] The reaction mixtures are incubated at room temperature for 60 minutes and then quenched by adding 25 μL of 50 mM EDTA. To quantify the fluorescent-labeled substrate and product following reaction, the test plate is loaded on a Caliper LC-3000, which measures percent of conversion by microfluidic-based separation.
The compounds were tested in accordance with the assay described on page 34 of the specification.

T1 sequence (Q06187 382-659): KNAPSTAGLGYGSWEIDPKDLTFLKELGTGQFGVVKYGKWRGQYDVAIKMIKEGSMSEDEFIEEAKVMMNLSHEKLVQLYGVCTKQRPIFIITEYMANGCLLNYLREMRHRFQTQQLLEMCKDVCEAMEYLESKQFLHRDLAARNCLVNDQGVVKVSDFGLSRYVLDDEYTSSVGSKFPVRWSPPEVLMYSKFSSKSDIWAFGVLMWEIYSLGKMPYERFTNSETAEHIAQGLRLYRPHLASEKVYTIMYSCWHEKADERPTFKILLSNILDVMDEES

In order of falling pIC50:
1. CCc1ccc2c(N)c(C(N)=O)nnc2c1-c1ccc2[nH]ncc2c1 [Example 62, 4-amino-7-ethyl-8-(1H-indazol-5-yl)cinnoline-3-carboxamide]  8.30
2. Cc1cc(F)c2c(N)c(C(N)=O)nnc2c1-c1ccc2[nH]ncc2c1 [Example 60, 4-amino-5-fluoro-8-(1H-indazol-5-yl)-7-methylcinnoline-3-carboxamide]  8.10
3. Cc1cc2[nH]ncc2cc1-c1cccc2c(N)c(C(N)=O)nnc12 [Example 49, 4-amino-8-(6-methyl-1H-indazol-5-yl)cinnoline-3-carboxamide]  8.00
4. CCc1ccc2c(N)c(C(N)=O)nnc2c1-c1ccc2cn[nH]c2c1 [Example 61, 4-amino-7-ethyl-8-(1H-indazol-6-yl)cinnoline-3-carboxamide]  8.00
5. Cc1cc(-c2cc3[nH]ncc3cc2C)c2nnc(C(N)=O)c(N)c2c1 [Example 64, 4-amino-6-methyl-8-(5-methyl-1H-indazol-6-yl)cinnoline-3-carboxamide]  8.00
6. COc1ccc2c(N)c(C(N)=O)nnc2c1-c1ccc2[nH]ncc2c1 [Example 51, 4-amino-8-(1H-indazol-5-yl)-7-methoxycinnoline-3-carboxamide]  7.90
7. Cc1cc(F)c2c(N)c(C(N)=O)nnc2c1-c1ccc2cn[nH]c2c1 [Example 56, 4-amino-5-fluoro-8-(1H-indazol-6-yl)-7-methylcinnoline-3-carboxamide]  7.90
8. NC(=O)c1nnc2c(-c3ccc4cn[nH]c4c3)c(Cl)ccc2c1N [Example 54, 4-amino-7-chloro-8-(1H-indazol-6-yl)cinnoline-3-carboxamide]  7.80
9. Cc1ccc2c(N)c(C(N)=O)nnc2c1-c1ccc2[nH]nnc2c1 [Example 48, 4-amino-8-(1H-benzo[d][1,2,3]triazol-5-yl)-7-methylcinnoline-3-carboxamide]  7.70
10. Cc1ccc2c(N)c(C(N)=O)nnc2c1-c1ccc2c(c1)CCNC2=O [Example 63, 4-amino-7-methyl-8-(1-oxo-1,2,3,4-tetrahydroisoquinolin-6-yl)cinnoline-3-carboxamide]  7.60
11. NC(=O)c1nnc2c(-c3ccc4nc(CCc5ccccc5)[nH]c4c3)cccc2c1N [Example 69, 4-amino-8-(2-phenethyl-1H-benzo[d]imidazol-6-yl)cinnoline-3-carboxamide]  7.50
12. Cc1cc2c(cnn2C)cc1-c1cccc2c(N)c(C(N)=O)nnc12 [Example 55, 4-amino-8-(1,6-dimethyl-1H-indazol-5-yl)cinnoline-3-carboxamide]  7.40
13. Cc1cc(C)cc(-c2nc3ccc(-c4cccc5c(N)c(C(N)=O)nnc45)cc3[nH]2)c1 [Example 80, 4-amino-8-(2-(3,5-dimethylphenyl)-1H-benzo[d]imidazol-6-yl)cinnoline-3-carboxamide]  7.40
14. Cc1cc(C)c2c(N)c(C(N)=O)nnc2c1-c1ccc2cn[nH]c2c1 [Example 53, 4-amino-8-(1H-indazol-6-yl)-5,7-dimethylcinnoline-3-carboxamide]  7.30
15. Cc1ccc2c(N)c(C(N)=O)nnc2c1-c1ccc2cnccc2c1 [Example 58, 4-amino-8-(isoquinolin-6-yl)-7-methylcinnoline-3-carboxamide]  7.30
16. COc1ccc2c(N)c(C(N)=O)nnc2c1-c1ccc2nc[nH]c2c1 [Example 46, 4-amino-8-(1H-benzo[d]imidazol-6-yl)-7-methoxycinnoline-3-carboxamide]  7.20
17. NC(=O)c1nnc2c(-c3ccc4nc(NCC5CC5)[nH]c4c3)cccc2c1N [Example 65, 4-amino-8-(2-((cyclopropylmethyl)amino)-1H-benzo[d]imidazol-6-yl)cinnoline-3-carboxamide]  7.20
18. NC(=O)c1nnc2c(-c3ccc4nc(-c5cc(Cl)cc(Cl)c5)[nH]c4c3)cccc2c1N [Example 67, 4-amino-8-(2-(3,5-dichlorophenyl)-1H-benzo[d]imidazol-6-yl)cinnoline-3-carboxamide]  7.20
19. Cc1ccc2c(N)c(C(N)=O)nnc2c1-c1cnc2[nH]ncc2c1 [Example 47, 4-amino-7-methyl-8-(1H-pyrazolo[3,4-b]pyridin-5-yl)cinnoline-3-carboxamide]  7.10
20. NC(=O)c1nnc2c(-c3ccc4nc(-c5ccccc5Cl)[nH]c4c3)cccc2c1N [Example 70, 4-amino-8-(2-(2-chlorophenyl)-1H-benzo[d]imidazol-6-yl)cinnoline-3-carboxamide]  7.10
21. COc1ccc(-c2nc3ccc(-c4cccc5c(N)c(C(N)=O)nnc45)cc3[nH]2)cc1 [Example 74, 4-amino-8-(2-(4-methoxyphenyl)-1H-benzo[d]imidazol-6-yl)cinnoline-3-carboxamide]  7.10
22. NC(=O)c1nnc2c(-c3ccc4nc(CC5CCCCC5)[nH]c4c3)cccc2c1N [Example 78, 4-amino-8-(2-(cyclohexylmethyl)-1H-benzo[d]imidazol-6-yl)cinnoline-3-carboxamide]  7.10
23. Cc1ccc2c(N)c(C(N)=O)nnc2c1-c1ccc2cnn(C)c2c1 [Example 45, 4-amino-7-methyl-8-(1-methyl-1H-indazol-6-yl)cinnoline-3-carboxamide]  7.00
24. Cc1ccc2c(N)c(C(N)=O)nnc2c1-c1ccc2[nH]nc(C)c2c1 [Example 50, 4-amino-7-methyl-8-(3-methyl-1H-indazol-5-yl)cinnoline-3-carboxamide]  7.00
25. NC(=O)c1nnc2c(-c3ccc4nc(-c5cn6ccccc6n5)[nH]c4c3)cccc2c1N [Example 75, 4-amino-8-(2-(imidazo[1,2-a]pyridin-2-yl)-1H-benzo[d]imidazol-6-yl)cinnoline-3-carboxamide]  6.90
26. NC(=O)c1nnc2c(-c3ccc4nc(-c5cccc(Cl)c5)[nH]c4c3)cccc2c1N [Example 76, 4-amino-8-(2-(3-chlorophenyl)-1H-benzo[d]imidazol-6-yl)cinnoline-3-carboxamide]  6.90
27. NC(=O)c1nnc2c(-c3ccc4nc(C5CCCCC5)[nH]c4c3)cccc2c1N [Example 68, 4-amino-8-(2-cyclohexyl-1H-benzo[d]imidazol-6-yl)cinnoline-3-carboxamide]  6.80
28. NC(=O)c1nnc2c(-c3ccc4nc(-c5ccsc5)[nH]c4c3)cccc2c1N [Example 73, 4-amino-8-(2-(thiophen-3-yl)-1H-benzo[d]imidazol-6-yl)cinnoline-3-carboxamide]  6.80
29. Cc1ccc2c(N)c(C(N)=O)nnc2c1-c1ccc2ccncc2c1 [Example 57, 4-amino-8-(isoquinolin-7-yl)-7-methylcinnoline-3-carboxamide]  6.70
30. NC(=O)c1nnc2c(-c3ccc4nc(-c5cncs5)[nH]c4c3)cccc2c1N [Example 82, 4-amino-8-(2-(thiazol-5-yl)-1H-benzo[d]imidazol-6-yl)cinnoline-3-carboxamide]  6.70
31. NC(=O)c1nnc2c(-c3ccc4nc(-c5cccc(C(F)(F)F)c5)[nH]c4c3)cccc2c1N [Example 71, 4-amino-8-(2-(3-(trifluoromethyl)phenyl)-1H-benzo[d]imidazol-6-yl)cinnoline-3-carboxamide]  6.50
32. NC(=O)c1nnc2c(-c3ccc4nc(-c5cccs5)[nH]c4c3)cccc2c1N [Example 79, 4-amino-8-(2-(thiophen-2-yl)-1H-benzo[d]imidazol-6-yl)cinnoline-3-carboxamide]  6.50
33. CC(C)(C)Cc1nc2ccc(-c3cccc4c(N)c(C(N)=O)nnc34)cc2[nH]1 [Example 66, 4-amino-8-(2-neopentyl-1H-benzo[d]imidazol-6-yl)cinnoline-3-carboxamide]  6.20
34. NC(=O)c1nnc2c(-c3ccc4nc(Cc5ccccc5)[nH]c4c3)cccc2c1N [Example 77, 4-amino-8-(2-benzyl-1H-benzo[d]imidazol-6-yl)cinnoline-3-carboxamide]  6.20
35. NC(=O)c1nnc2c(-c3ccc4nc(C5CCCOC5)[nH]c4c3)cccc2c1N (centres unmarked) [Example 83, 4-amino-8-(2-(tetrahydro-2H-pyran-3-yl)-1H-benzo[d]imidazol-6-yl)cinnoline-3-carboxamide]  6.10
36. NC(=O)c1nnc2c(-c3ccc4nc(C5CCCC5)[nH]c4c3)cccc2c1N [Example 72, 4-amino-8-(2-cyclopentyl-1H-benzo[d]imidazol-6-yl)cinnoline-3-carboxamide]  5.90
37. Cc1ccc2c(N)c(C(N)=O)nnc2c1-c1ccc2cn(C)nc2c1 [Example 52, 4-amino-7-methyl-8-(2-methyl-2H-indazol-6-yl)cinnoline-3-carboxamide]  5.60
38. NC(=O)c1nnc2c(-c3ccc4nc(CC5CCOCC5)[nH]c4c3)cccc2c1N [Example 81, 4-amino-8-(2-((tetrahydro-2H-pyran-4-yl)methyl)-1H-benzo[d]imidazol-6-yl)cinnoline-3-carboxamide]  5.60
